Values belong to the compound of their own block, whether it stands above or below them. Activity calls are given as the source filed them. The calls are words filed in the database; no cut-off is given here. Residues, ends and D or L forms follow the SMILES beside them.
How the values were obtained:
[1] = biological target: T1, DNA repair protein RAD51 homolog 1 (Homo sapiens, UniProt Q06609); test: Binding affinity to RAD51 (unknown origin) assessed as dissociation constant by MST assay
T1 sequence (Q06609 whole entry): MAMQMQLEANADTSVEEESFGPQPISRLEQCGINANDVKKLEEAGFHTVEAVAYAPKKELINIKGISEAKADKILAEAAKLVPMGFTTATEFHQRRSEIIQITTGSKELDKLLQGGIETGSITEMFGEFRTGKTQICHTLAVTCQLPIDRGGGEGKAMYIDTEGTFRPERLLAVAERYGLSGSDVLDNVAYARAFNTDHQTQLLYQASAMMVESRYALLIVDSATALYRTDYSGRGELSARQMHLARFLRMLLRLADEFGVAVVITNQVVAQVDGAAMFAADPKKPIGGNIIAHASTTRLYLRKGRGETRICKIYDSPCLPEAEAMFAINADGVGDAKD

[2] = system: 786-0; test: cells; conditions: Homo sapiens, 786-0, 72 h
Description: Inhibition of cell proliferation of human 786-0 cells incubated for 72 hrs by MTT assay

[3] = Stability in mouse serum assessed as compound remaining at 5 uM measured after 180 mins by HPLC analysis; assay type: ADME, cell-free; conditions: 3 h
[4] = system: 786-0; test: Inhibition of cell proliferation of human 786-0 cells at 3 uM incubated for 72 hrs by MTT assay relative to control; assay type: functional
[5] = Toxicity in BALB/c nude mouse xenografted with human 786-0 cells assessed as change in CREA level at 10 to 20 mg/kg, iv measured for 21 days; assay type: organism-based; conditions: in vivo, 504 h, dose 10-20 mg/kg, time 21 day
[6] = system: 786-0; test: Inhibition of HR repair in human 786-0 cells transfected with plasmids upto 640 nM incubated for 5 hrs by real-time PCR assay; assay type: functional, cell-based
[7] = Inhibition of cell proliferation of human MCF-10A cells incubated for 72 hrs by MTT assay; assay type: toxicity, cell-based
[8] = Inhibition of cell proliferation of human HK-2 cells incubated for 72 hrs by MTT assay; assay type: toxicity, cell-based
[9] = system: 786-0; test: Antitumor activity against human 786-0 cells xenografted in BALB/c nude mouse assessed as tumor growth inhibition administered intravenously measured for 21 days; assay type: functional, cell-based; conditions: dose 10-20 mg/kg, route iv, time 21.0 day
[10] = Half life in BALB/c mouse at 10 mg/kg, iv measured for 0.25 to 24 hrs by LC-MS/MS analysis; assay type: ADME, organism-based; conditions: in vivo, time 0.25-24 hrs
[11] = Tmax in BALB/c mouse at 10 mg/kg, iv measured for 0.25 to 24 hrs by LC-MS/MS analysis; assay type: ADME, organism-based; conditions: in vivo, time 0.25-24 hrs
[12] = Toxicity in BALB/c nude mouse xenografted with human 786-0 cells assessed as change in BUN level at 10 to 20 mg/kg, iv measured for 21 days; assay type: organism-based; conditions: in vivo, 504 h, dose 10-20 mg/kg, time 21 day
[13] = Inhibition of cell proliferation of human GP2-293 cells incubated for 72 hrs by MTT assay; assay type: toxicity, cell-based
[14] = AUC in BALB/c mouse at 10 mg/kg, iv measured for 0.25 to 24 hrs by LC-MS/MS analysis; assay type: ADME, organism-based; conditions: in vivo, time 0.25-24 hrs
[15] = system: 786-0; test: Antitumor activity against human 786-0 cells xenografted in BALB/c nude mouse assessed as reduction in tumor weight at 10 to 20 mg/kg, iv measured for 21 days; assay type: functional, organism-based; conditions: dose 10-20 mg/kg, time 21.0 day
[16] = Stability in mouse serum assessed as compound remaining at 5 uM measured after 360 mins by HPLC analysis; assay type: ADME, cell-free; conditions: read-out: Stability
[17] = system: ACHN; test: Inhibition of cell proliferation of human ACHN cells incubated for 72 hrs by MTT assay; assay type: functional, cell-based
[18] = Cmax in BALB/c mouse at 10 mg/kg, iv measured for 0.25 to 24 hrs by LC-MS/MS analysis; assay type: ADME, organism-based; conditions: in vivo, time 0.25-24 hrs
[19] = system: 786-0; test: Induction of DNA damage in human 786-0 cells assessed as increase in gamma-H2AX mRNA level incubated for 48 hrs by qPCR analysis; assay type: functional, cell-based; conditions: dose 100-300 nM
[20] = system: 786-0; test: Antitumor activity against human 786-0 cells xenografted in BALB/c nude mouse assessed as reduction in tumor volume at 10 to 20 mg/kg, iv measured for 21 days; assay type: functional, organism-based; conditions: dose 10-20 mg/kg, time 21.0 day
[21] = biological target: T1, DNA repair protein RAD51 homolog 1; test: Inhibition of RAD51 (unknown origin) in presence of AlexaFluor 488-labeled BRC4 by fluorescence polarization competitive binding assay
[22] = Toxicity in BALB/c nude mouse xenografted with human 786-0 cells assessed as body weight change at 10 to 20 mg/kg, iv measured for 21 days; assay type: organism-based; conditions: in vivo, 504 h, dose 10-20 mg/kg, time 21 day
[23] = Inhibition of cell proliferation of human Hkb20 cells incubated for 72 hrs by MTT assay; assay type: toxicity, cell-based
[24] = system: CAKI-1; test: Inhibition of cell proliferation of human CAKI-1 cells incubated for 72 hrs by MTT assay; assay type: functional, cell-based; conditions: CAKI-1, 72 h
[25] = Toxicity in BALB/c nude mouse xenografted with human 786-0 cells assessed as change in AST level at 10 to 20 mg/kg, iv measured for 21 days; assay type: organism-based; conditions: in vivo, 504 h, dose 10-20 mg/kg, time 21 day
[26] = system: A498; test: Inhibition of cell proliferation of human A498 cells incubated for 72 hrs by MTT assay; assay type: functional, cell-based; conditions: A498, 72 h
[27] = Toxicity in BALB/c nude mouse xenografted with human 786-0 cells assessed as change in ALT level at 10 to 20 mg/kg, iv measured for 21 days; assay type: organism-based; conditions: in vivo, 504 h, dose 10-20 mg/kg, time 21 day
[28] = Inhibition of cell proliferation of human SNU-349 cells incubated for 72 hrs by MTT assay; assay type: functional, cell-based; conditions: SNU-349, 72 h

Kd [1]: 602 nM | IC50 [2]: > 10000 nM | Stability [3]: Unstable
Compound: CC[C@H](C)[C@H](NC(=O)[C@H](CCCCN)NC(=O)[C@@H](NC(=O)[C@H](CCCCN)NC(=O)[C@H](CCCCN)NC(=O)CNC(=O)[C@H](CO)NC(=O)[C@H](C)NC(=O)[C@@H](NC(=O)[C@H](Cc1c[nH]cn1)NC(=O)[C@H](Cc1ccccc1)NC(=O)CNC(=O)[C@H](CC(C)C)NC(=O)[C@H](CC(C)C)NC(C)=O)[C@@H](C)O)C(C)C)C(=O)N[C@@H](C)C(=O)N[C@@H](CCCCN)C(N)=O (Ac-LLGFHTASGKKVKIAK-NH2)

Kd [1]: 56.7 nM
Compound: CC[C@](C)(NC(=O)[C@@H](NC(=O)[C@H](CC(C)C)NC(=O)[C@H](Cc1c[nH]c2ccccc12)NC(=O)[C@@H](CO)NC(C)=O)C(C)C)C(N)=O
inhibition at 3 µM [4]: > 60%

Kd [1]: 236 nM
Compound: CC[C@](C)(NC(=O)[C@@H](NC(=O)[C@H](CC(C)C)NC(=O)[C@H](Cc1c[nH]c2ccccc12)NC(=O)[C@H](CO)NC(C)=O)[C@@H](C)O)C(N)=O
inhibition at 3 µM [4]: > 60%

Kd [1]: 145 nM
Compound: CC(=O)N[C@H](CO)C(=O)N[C@@H](Cc1ccccc1)C(=O)N[C@@H](CC(C)C)C(=O)N[C@H](C(=O)N[C@@H](C)C(N)=O)C(C)C
inhibition at 3 µM [4]: > 60%

Kd [1]: 40.1 nM
Compound: CC[C@](C)(NC(=O)[C@@H](NC(=O)[C@H](C)NC(=O)[C@H](Cc1c[nH]c2ccccc12)NC(=O)[C@@H](CO)NC(C)=O)[C@@H](C)O)C(N)=O
inhibition at 3 µM [4]: > 60%

Kd [1]: 9.24 nM | IC50 [2]: 90 nM | half-life [10]: 7.38 h | Tmax [11]: 0.29 h | AUC [14]: 13000 ng·h/mL | remaining at 6 h, 5 µM [16]: 85% | IC50 [17]: 310 nM | Cmax [18]: 6470 ng/mL | IC50 [21]: 35 nM
Compound: CC[C@](C)(NC(=O)[C@@H](NC(=O)[C@H](CC(C)C)NC(=O)[C@H](Cc1c[nH]c2ccccc12)NC(=O)[C@@H](CO)NC(C)=O)[C@@H](C)O)C(N)=O
Activity [5]: Non-toxic | inhibition [6]: Dose-dependent-effect | IC50 at 72 h [7]: > 10000 nM | IC50 at 72 h [8]: > 10000 nM | Activity [9]: Dose-dependent-effect | inhibition at 3 µM [4]: > 90% | Activity [12]: Non-toxic | IC50 at 72 h [13]: > 10000 nM | Activity [15]: Active | Activity [19]: Dose-dependent-effect | Activity [20]: Active | Activity [22]: Non-toxic | IC50 at 72 h [23]: > 10000 nM | IC50 [24]: 510 nM | Activity [25]: Non-toxic | IC50 [26]: 680 nM | Activity [27]: Non-toxic | IC50 [28]: 250 nM

Kd [1]: 128 nM
Compound: CC[C@](C)(NC(=O)[C@@H](NC(=O)[C@H](CC(C)C)NC(=O)[C@H](Cc1ccccc1)NC(=O)[C@@H](CO)NC(C)=O)[C@@H](C)O)C(N)=O
inhibition at 3 µM [4]: > 60%

From ChEMBL document CHEMBL6114976, “Structure-based design, synthesis and biological evaluation of a novel d-amino acid-containing peptide inhibitor by blocking the RAD51-BRCA2 interaction for the treatment of kidney cancer” (Eur J Med Chem, 2025)
